≈ marks a conversion by molar mass, not a printed value.
Assays:
[1] = system: Pseudomonas aeruginosa; assay: Antimicrobial activity against Pseudomonas aeruginosa ATCC 27853 assessed as inhibition of bacterial growth incubated for 48 hrs by CLSI based broth microdilution method; type: functional
[2] = Hemolytic activity in human RBC assessed as hemolysis incubated for 1 hr by absorbance based microplate reader analysis; type: toxicity, cell-based, Erythrocyte; conditions: human red blood cells (erythrocytes)
[3] = system: Bacillus subtilis; assay: Antimicrobial activity against Bacillus subtilis 168 assessed as inhibition of bacterial growth incubated for 48 hrs by CLSI based broth microdilution method; type: functional
[4] = system: Staphylococcus aureus; assay: Antimicrobial activity against Staphylococcus aureus ATCC 9144 assessed as inhibition of bacterial growth incubated for 48 hrs by CLSI based broth microdilution method; type: functional
[5] = system: Escherichia coli; assay: Antimicrobial activity against Escherichia coli ATCC 25922 assessed as inhibition of bacterial growth incubated for 48 hrs by CLSI based broth microdilution method; type: functional
[6] = Selectivity index, ratio of EC50 for hemolytic activity in human RBC assessed as hemolysis to MIC for antimicrobial activity against Bacillus subtilis 168 assessed as inhibition of bacterial growth; type: toxicity; conditions: human red blood cells (erythrocytes), read-out: Selectivity Index
[7] = Selectivity index, ratio of EC50 for hemolytic activity in human RBC assessed as hemolysis to MIC for antimicrobial activity against Staphylococcus aureus ATCC 9144 assessed as inhibition of bacterial growth; type: toxicity; conditions: human red blood cells (erythrocytes), read-out: Selectivity Index
[8] = Selectivity index, ratio of EC50 for hemolytic activity in human RBC assessed as hemolysis to MIC for antimicrobial activity against Escherichia coli ATCC 25922 assessed as inhibition of bacterial growth; type: toxicity; conditions: human red blood cells (erythrocytes), read-out: Selectivity Index
[9] = Selectivity index, ratio of EC50 for hemolytic activity in human RBC assessed as hemolysis to MIC for antimicrobial activity against Pseudomonas aeruginosa ATCC 27853 assessed as inhibition of bacterial growth; type: toxicity; conditions: human red blood cells (erythrocytes), read-out: Selectivity Index

Row | SMILES | MIC [1] [µg/mL] | EC50 at 1 h [2] [µg/mL] | MIC [3] [µg/mL] | MIC [4] [µg/mL] | MIC [5] [µg/mL] | selectivity ratio [6] | selectivity ratio [7] | selectivity ratio [8] | selectivity ratio [9]
1 | N=C(N)NCCCCN1C(=O)N(CCCCNC(=N)N)C(Cc2ccc(C(F)(F)F)cc2)(Cc2ccc(C(F)(F)F)cc2)C1=O.O=C(O)C(F)(F)F.O=C(O)C(F)(F)F | > 128 | > 503 | 4 | 4 | 64 | – | – | – | –
2 | NCCCN1C(=O)N(CCCN)C(Cc2ccc(Br)c(Cl)c2)(Cc2ccc(Br)c(Cl)c2)C1=O.O=C(O)C(F)(F)F.O=C(O)C(F)(F)F | 32 | 368 | 4 | 8 | 32 | – | – | – | –
3 | NCCCCN1C(=O)N(CCCCN)C(Cc2cc(Br)cc(Br)c2)(Cc2cc(Br)cc(Br)c2)C1=O.O=C(O)C(F)(F)F.O=C(O)C(F)(F)F | 32 | 364 | 2 | 8 | 32 | – | – | – | –
4 | NCCCCN1C(=O)N(CCCCN)C(Cc2ccc(Br)c(Cl)c2)(Cc2ccc(Br)c(Cl)c2)C1=O.O=C(O)C(F)(F)F.O=C(O)C(F)(F)F | 64 | > 439 | 4 | 8 | 64 | > 110 | > 55 | – | –
5 | NCCCN1C(=O)N(CCCN)C(Cc2ccc(Br)c3ccccc23)(Cc2ccc(Br)c3ccccc23)C1=O.O=C(O)C(F)(F)F.O=C(O)C(F)(F)F | 8 | 69 | 4 | 4 | 8 | – | – | – | –
6 | N=C(N)NCCCN1C(=O)N(CCCNC(=N)N)C(Cc2ccc(Br)c(Cl)c2)(Cc2ccc(Br)c(Cl)c2)C1=O | 64 (≈ 90.7 µM) | > 467 | 2 (≈ 2.84 µM) | 2 (≈ 2.84 µM) | 32 (≈ 45.4 µM) | > 234 | > 234 | – | –
7 | NCCCN1C(=O)N(CCCN)C(Cc2cc(Br)cc(Br)c2)(Cc2cc(Br)cc(Br)c2)C1=O.O=C(O)C(F)(F)F.O=C(O)C(F)(F)F | 8 | 344 | 4 | 8 | 16 | 86 | 43 | 22 | 43
8 | NCCCCN1C(=O)N(CCCCN)C(Cc2cc(C(F)(F)F)cc(C(F)(F)F)c2)(Cc2cc(C(F)(F)F)cc(C(F)(F)F)c2)C1=O.O=C(O)C(F)(F)F.O=C(O)C(F)(F)F | 64 | > 461 | 4 | 16 | 64 | – | – | – | –
9 | NCCCN1C(=S)N(CCCN)C(Cc2cc(Br)cc(Br)c2)(Cc2cc(Br)cc(Br)c2)C1=S.O=C(O)C(F)(F)F.O=C(O)C(F)(F)F | 32 | 385 | 8 | 8 | 16 | – | – | – | –
10 | N=C(N)NCCCN1C(=O)N(CCCNC(=N)N)C(Cc2ccc(C(F)(F)F)cc2)(Cc2ccc(C(F)(F)F)cc2)C1=O.O=C(O)C(F)(F)F.O=C(O)C(F)(F)F | > 256 | > 421 | 8 | 16 | 128 | – | – | – | –
11 | NCCCN1C(=O)N(CCCN)C(=O)C(Cc2cc(Br)cc(Br)c2)(Cc2cc(Br)cc(Br)c2)C1=O.O=C(O)C(F)(F)F.O=C(O)C(F)(F)F | 8 | – | 4 | 4 | 8 | – | – | – | –
12 | NCCCN1C(=O)N(CCCN)C(Cc2ccc(C(F)(F)F)cc2)(Cc2ccc(C(F)(F)F)cc2)C1=O.O=C(O)C(F)(F)F.O=C(O)C(F)(F)F | > 256 | > 379 | 16 | 64 | 256 | – | – | – | –
13 | NCCCCN1C(=O)N(CCCCN)C(Cc2ccc(C(F)(F)F)cc2)(Cc2ccc(C(F)(F)F)cc2)C1=O.O=C(O)C(F)(F)F.O=C(O)C(F)(F)F | > 128 | > 393 | 16 | 64 | > 128 | – | – | – | –
14 | N=C(N)NCCCN1C(=O)N(CCCNC(=N)N)C(Cc2ccccc2)(Cc2ccccc2)C1=O.O=C(O)C(F)(F)F.O=C(O)C(F)(F)F | > 256 | > 353 | 128 | 64 | > 256 | – | – | – | –
15 | NCCCOc1nc(Cc2cc(Br)cc(Br)c2)c(Cc2cc(Br)cc(Br)c2)n1CCCN.O=C(O)C(F)(F)F.O=C(O)C(F)(F)F | 4 | 44 | 2 | 2 | 4 | – | – | – | –
16 | N=C(N)NCCCCN1C(=O)N(CCCCNC(=N)N)C(Cc2cc(Br)cc(Br)c2)(Cc2cc(Br)cc(Br)c2)C1=O.O=C(O)C(F)(F)F.O=C(O)C(F)(F)F | 16 | 206 | 1 | 1 | 4 | 206 | 206 | 52 | 13
17 | NCCCn1c(Cc2cc(Br)cc(Br)c2)c(Cc2cc(Br)cc(Br)c2)n(CCCN)c1=O.O=C(O)C(F)(F)F.O=C(O)C(F)(F)F | 8 | 52 | 1 | 2 | 4 | – | – | – | –
18 | N=C(N)NCCCN1C(=O)N(CCCNC(=N)N)C(Cc2cc(Br)cc(Br)c2)(Cc2cc(Br)cc(Br)c2)C1=O.O=C(O)C(F)(F)F.O=C(O)C(F)(F)F | 32 | 486 | 4 | 2 | 16 | 122 | 243 | 30 | –
19 | NCCCN1C(=O)N(CCCN)C(Cc2cc(C(F)(F)F)cc(C(F)(F)F)c2)(Cc2cc(C(F)(F)F)cc(C(F)(F)F)c2)C1=O.O=C(O)C(F)(F)F.O=C(O)C(F)(F)F | 16 | 399 | 8 | 16 | 16 | 50 | 25 | 25 | 25
20 | N=C(N)NCCCCN1C(=O)N(CCCCNC(=N)N)C(Cc2cc(C(F)(F)F)cc(C(F)(F)F)c2)(Cc2cc(C(F)(F)F)cc(C(F)(F)F)c2)C1=O.O=C(O)C(F)(F)F.O=C(O)C(F)(F)F | 32 | 384 | 2 | 2 | 8 | 192 | 192 | 48 | –
21 | N=C(N)NCCCN1C(=O)N(CCCNC(=N)N)C(Cc2ccc(Br)c3ccccc23)(Cc2ccc(Br)c3ccccc23)C1=O.O=C(O)C(F)(F)F.O=C(O)C(F)(F)F | 32 | 206 | 2 | 2 | 8 | 103 | 103 | 26 | –
22 | NCCCN1C(=O)N(CCCN)C(Cc2ccccc2)(Cc2ccccc2)C1=O.O=C(O)C(F)(F)F.O=C(O)C(F)(F)F | > 256 | > 311 | 256 | > 256 | > 256 | – | – | – | –
23 | N=C(N)NCCCN1C(=O)N(CCCNC(=N)N)C(Cc2cc(C(F)(F)F)cc(C(F)(F)F)c2)(Cc2cc(C(F)(F)F)cc(C(F)(F)F)c2)C1=O | 32 (≈ 42.6 µM) | > 489 | 2 (≈ 2.66 µM) | 4 (≈ 5.33 µM) | 32 (≈ 42.6 µM) | > 245 | > 122 | – | –

From ChEMBL document CHEMBL5346904 (Eur J Med Chem, 2023)
